Patent US8232273B2, “Heterocyclic compounds and methods of use” (Genentech, Inc., priority 2008, dated 2012)

How the values were obtained:
Bcl-xL (GST-Bcl-xL) [1] = target: T1, Bcl-xL (GST-Bcl-xL) (Homo sapiens, UniProt Q07817); experiment: TR-FRET binding assay, competition with F-Bak for the Bcl-xL binding site; details: values listed in the order of Table 1, read-out: TR-FRET assay results (Ki), Bcl-xL
Bcl-2 (GST-Bcl-2) = target: T2, Bcl-2 (GST-Bcl-2) (Homo sapiens, UniProt P10415); experiment: TR-FRET binding assay, competition with F-Bak for the Bcl-2 binding site; details: Bcl-2, for comparison (selectivity)
T2 construct: made in house
Experimental: For each assay plate, a probe/antibody and protein/antibody/probe mixture were included as a negative and a positive control, respectively. Fluorescence was measured on the Envision (Perkin Elmer) using a 340/35 nm excitation filter and 520/525 (F-Bak) and 495/510 nm (Tb-labeled anti-his antibody) emission filters. Dissociation constants (Ki) were determined using Wang's equation (see, Wang, Z. X. An exact mathematical expression for describing competitive binding of two different ligands to a protein molecule. FEBS Lett. 1995 360:111-114). The TR-FRET assay can be performed in the presence of varying concentrations of human serum (HS) or fetal bovine serum (FBS). For comparison, the measurement of the competition of compounds of the invention for other Bcl-2 family protein binding sites (e.g., Bcl-2, Mcl-1) using the TR-FRET binding assay was accomplish by substituting GST-Bcl-xL in the TR-FRET assay with other GST-labeled protein, e.g., GST-Bcl-2, GST-Mcl-1, prepared in-house.

[2] = system: Mcl-1-/- mouse embryonic fibroblasts (MEF); experiment: Cell viability assay for Mcl-1-/- mouse embryonic fibroblasts (CellTiter-Glo); assay type: cell-based; details: Fibroblast, in the presence of 10% Fetal Bovine Serum, read-out: MEF Mcl-1-/- KO cell viability results (EC50)
Excerpt: a. Cell Viability Assay for Mcl-1^−/− Mouse Embryonic Fibroblasts (MEF): […]
In this assay, Mcl-1^(−/−) cells were used to confirm that cell apoptosis in the presence of BH3 mimetic small molecules was due to predominantly Bcl-xL inactivation. This inactivation leaves Bax/Bak unconstrained and results in apoptosis. The […]-GLO Luminescent Cell Viability Assay is a homogeneous method of determining the number of viable cells in culture based on quantitation of the ATP present. The amount of ATP correlates with the presence of metabolically active cells such that following cell lysis the amount of ATP present is proportional to the amount of luminescence measured.
Mcl-1^(−/−) mouse embryonic fibroblasts (MEFs) are an adherent cell line prepared in house. MEFs were grown in Iwaki 75 cm^2 tissue culture flasks (cat #3123-075) with FMA media which consists of • 89% DME Kelso • 10% heat-inactivated foetal calf serum (FCS) (Hyclone cat #SH30396.03) • 1% 10 mM asparagine (Fluka cat #11149) • 275 μl of a 1:2000 dilution of 2-mercaptoethanol is added to the final 500 ml volume of FMA (Sigma cat #M7522; diluted in MT-PBS)
FMA was stored at 4° C. and used at 37° C. MEFs were cultured in FMA media and harvested in MT-PBS and trypsin. For MEF cell viability assays, cells were seeded separately in plates with 10% FCS-FMA and 1% FCS-FMA.
Assays were performed using white, flat clear-bottom Greiner 384-well tissue culture grade (Interpath #781098) plates. The compounds were made up in Matrical 384-well, 25 μl V-bottomed plates (cat #MP101-2-PP), sealed with aluminium foil from Beckman Coulter (cat #538619) and stored at 12° C. overnight. Compound preparation and titrations were performed in AnalaR grade DMSO (Merck cat #1.02952.2500). The cell viability detection assay used was […]-GLO™ which is commercially available from Promega (cat #G7572), stored at −20° C. and used at 37° C.
Compounds of the invention were prepared as 10 mM solution in 100% DMSO and stored at −20° C. Compounds were thawed to room temperature and dispensed into a 384 well Matrical plate. Standard control compounds, e.g. 32.3 mM Etoposide, were added to the plate as controls.
The media was aspirated and the Mcl-1^(−/−) cells washed with 10 mls of warmed MT-PBS. MT-PBS was aspirated and 1 ml of trypsin was added. The T75 flasks were incubated at 37° C. until the cells became detached. 4 ml of 10% FCS FMA media was added to the trypsinized cells and the entire volume was transferred to a 50 ml centrifuge tube and centrifuged for 3 minutes at 250 g. The supernatant was aspirated and the pellet resuspended in 10 ml of 10% FCS FMA. 3 ml of this cell suspension was added to a clean 75 cm^2 flask containing 17 ml of 10% FCS FMA media, thus performing a 3:10 split. The remaining cell suspension was used to perform a 1:50 split into another 75 cm^2 flask for further culturing.
Cells were harvested as per method step 1 and the pellet resuspended in 3 mls 10% FCS FMA. Cell number was determined by counting in a Neubauer haemocytometer and the dilution calculated to achieve a density of 1×10^4 cells ml^−1 (500 cells per well in 50 μl media). Separate dilutions were prepared in 50 ml 10% FCS FMA and 50 ml 1% FCS FMA solutions respectively.
Four assay plates were set up per compound plate. Two 384 well plates containing Mcl-1^(−/−) cells in 10% FCS FMA and the other two plates containing Mcl-1^(−/−) cells in 1% FCS FMA.
Using the Multidrop, 25 μl cells were dispensed aseptically into all 384 wells of the assay plates. Plates were left to rest in a non-stacked layer at room temperature for approximately 30 minutes (minimizes edge-effects) and then were placed as a single layer in the 37° C. incubator. The plates were left to incubate overnight.
The compound plates were titrated by performing a 3-fold 11-point dilution series using 100% DMSO on the MiniTrak. Following titration of the compounds, 100 nl of compounds were added to the cell plates using the Zymark Sciclone Pintool. […]

platelets = experiment: Cell viability assay for platelets (platelet rich plasma, CellTiter-Glo); assay type: cell-based; details: approximately 4 hours at 37 C
Experimental: Platelet rich plasma (PRP) was incubated with a compound of the invention for approximately 4 hours at 37° C. After incubation, platelets were equilibrated to room temperature for 20 minutes and then and equal volume of CELL TITER-GLO™ reagent (Promega Corporation) was added. Samples were mixed for two minutes and then allowed to equilibrate for an additional 10 minutes at room temperature. The luminescence generated from the samples was quantitated using a LJL Analyst plate reader. Data analysis was performed using GraphPad Prism 4.0.

Bcl-xL (GST-Bcl-xL) [3] = target: T1, Bcl-xL (GST-Bcl-xL); experiment: AlphaScreen Bcl-xL binding assay, competition with biotinylated Bim peptide; design: made in house; details: values listed in the order of Table 1; read-out: Alphascreen results (IC50) against the Bcl-xL protein
Procedure, shortened: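 Acceptor beads with GST-Bcl-xL were combined with donor beads carrying biotinylated Bim peptide after each bead mix was preincubated 30 min at room temperature. Compounds in DMSO, 2-fold serially diluted, were incubated 30 min at room temperature before donor addition, with duplicate plates. Percent inhibition was taken against no-protein and DMSO controls, and IC50 was calculated.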

[4] = system: NCI-H146 human small cell lung carcinoma cells; experiment: Cellular viability of human tumor cell line NCI-H146 (MTS assay); assay type: cell-based; details: 10% human serum, 48 hours of compound treatment
Experimental: NCI-H146 (ATCC, Manassas, Va.) human small cell lung carcinoma cells were plated 50,000 cells per well in 96-well tissue culture plates in a total volume of 100 μL tissue culture medium supplemented with 10% human serum (Invitrogen, Carlsbad, Calif.) and treated with a 2-fold serial dilution of the compounds of interest from 10 μM to […].
Each concentration was tested in duplicate at least 3 separate times. The number of viable cells following 48 hours of compound treatment was determined using the […] 96® Aqueous non-radioactive cell proliferation MTS assay according to manufacturer's recommendations (Promega Corp., Madison, Wis.).

T2 sequence (P10415 whole entry, species assumed): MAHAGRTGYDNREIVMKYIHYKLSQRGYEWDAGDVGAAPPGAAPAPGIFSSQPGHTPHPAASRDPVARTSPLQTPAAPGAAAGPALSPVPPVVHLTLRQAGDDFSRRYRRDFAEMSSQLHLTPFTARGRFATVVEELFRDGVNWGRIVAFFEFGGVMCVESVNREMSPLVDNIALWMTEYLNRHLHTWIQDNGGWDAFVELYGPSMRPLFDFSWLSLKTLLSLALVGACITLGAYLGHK
T1 sequence (Q07817 whole entry, species assumed): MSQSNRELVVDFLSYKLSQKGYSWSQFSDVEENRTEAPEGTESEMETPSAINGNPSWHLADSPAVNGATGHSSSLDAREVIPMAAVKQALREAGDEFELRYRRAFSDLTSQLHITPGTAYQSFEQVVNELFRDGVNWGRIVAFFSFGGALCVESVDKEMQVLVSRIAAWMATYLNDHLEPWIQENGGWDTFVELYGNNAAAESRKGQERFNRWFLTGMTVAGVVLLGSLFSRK

Compound	Ki (Bcl-xL (GST-Bcl-xL) [1]) [nM]	Ki (Bcl-2 (GST-Bcl-2)) [nM]	EC50 [2] [nM]	EC50 (platelets) [nM]	IC50 (Bcl-xL (GST-Bcl-xL) [3]) [nM]	EC50 [4] [nM]
N#Cc1ncccc1-c1ccc(OCCCc2sc(N3CCc4cccc(C(=O)Nc5nc6ccccc6s5)c4C3)nc2C(=O)O)cc1 [Example 58, 2-[8-(Benzothiazol-2-ylcarbamoyl)-3,4-dihydro-1H-isoquinolin-2-yl]-5-{3-[4-(2-cyano-pyridin-3-yl)-phenoxy]-propyl}-thiazole-4-carboxylic acid]	0.5	310	1300	–	–	–
O=C(Nc1nc2ccccc2s1)c1cccc2c1CN(c1nc(C(=O)O)c(CCCOc3ccc(N4CCNCC4)cc3)s1)CC2 [Example 64, 2-[8-(Benzothiazol-2-ylcarbamoyl)-3,4-dihydro-1H-isoquinolin-2-yl]-5-[3-(4-piperazin-1-yl-phenoxy)-propyl]-thiazole-4-carboxylic acid]	0.05	90	310	–	–	–
CN(C)CCOc1ccc(OCCCc2sc(N3CCc4cccc(C(=O)Nc5nc6ccccc6s5)c4C3)nc2C(=O)O)cc1 [Example 75, 2-[8-(Benzothiazol-2-ylcarbamoyl)-3,4-dihydro-1H-isoquinolin-2-yl]-5-{3-[4-(2-dimethylamino-ethoxy)-phenoxy]-propyl}-thiazole-4-carboxylic acid]	0.05	–	–	9	0.1	–
O=C(Nc1nc2ccccc2s1)c1cccc2c1CN(c1nc(C(=O)O)c(CCCOc3ccc(-c4ncccn4)cc3)s1)CC2 [Example 81, 2-[8-(Benzothiazol-2-ylcarbamoyl)-3,4-dihydro-1H-isoquinolin-2-yl]-5-[3-(4-pyrimidin-2-yl-phenoxy)-propyl]-thiazole-4-carboxylic acid]	0.05	110	10	–	–	–
CN1CCN(c2ccc(OCCCc3sc(N4CCc5cccc(C(=O)Nc6nc7ccccc7s6)c5C4)nc3C(=O)O)cc2)CC1 [Example 82, 2-[8-(Benzothiazol-2-ylcarbamoyl)-3,4-dihydro-1H-isoquinolin-2-yl]-5-{3-[4-(4-methyl-piperazin-1-yl)-phenoxy]-propyl}-thiazole-4-carboxylic acid]	0.05	120	30	–	–	2500
O=C(Nc1nc2ccccc2s1)c1cccc2c1CN(c1nc(C(=O)O)c(CCCOc3ccc(OCCN4CCOCC4)cc3)s1)CC2 [Example 88, 2-[8-(Benzothiazol-2-ylcarbamoyl)-3,4-dihydro-1H-isoquinolin-2-yl]-5-{3-[4-(2-morpholin-4-yl-ethoxy)-phenoxy]-propyl}-thiazole-4-carboxylic acid]	0.05	300	28	3	–	–
CN1CCN(c2ccc(OCCCc3sc(N4CCc5cccc(C(=O)Nc6nc7ccccc7s6)c5C4)nc3C(=O)O)c(F)c2)CC1 [Example 93, 2-[8-(Benzothiazol-2-ylcarbamoyl)-3,4-dihydro-1H-isoquinolin-2-yl]-5-{3-[2-fluoro-4-(4-methyl-piperazin-1-yl)-phenoxy]-propyl}-thiazole-4-carboxylic acid]	0.05	155	–	–	–	3200
CN1CCN(c2ccc(OCCCc3ccc(N4CCc5cccc(C(=O)Nc6nc7ccccc7s6)c5C4)nc3C(=O)O)cc2)CC1 [Example 94, 6-[8-(Benzothiazol-2-ylcarbamoyl)-3,4-dihydro-1H-isoquinolin-2-yl]-3-{3-[4-(4-methyl-piperazin-1-yl)-phenoxy]-propyl}-pyridine-2-carboxylic acid]	2	572	448	–	–	–
CN(C)CCOc1ccc(-c2ccc(OCCCc3ccc(N4CCc5cccc(C(=O)Nc6nc7ccccc7s6)c5C4)nc3C(=O)O)cc2)nc1 [Example 95, 6-[8-(Benzothiazol-2-ylcarbamoyl)-3,4-dihydro-1H-isoquinolin-2-yl]-3-(3-{4-[5-(2-dimethylamino-ethoxy)-pyridin-2-yl]-phenoxy}-propyl)-pyridine-2-carboxylic acid]	0.05	–	–	3	–	–
O=C(Nc1nc2ccccc2s1)c1cccc2c1CN(c1ccc(CCCOc3ccc(-c4ncccn4)cc3)c(C(=O)O)n1)CC2 [Example 96, 6-[8-(Benzothiazol-2-ylcarbamoyl)-3,4-dihydro-1H-isoquinolin-2-yl]-3-[3-(4-pyrimidin-2-yl-phenoxy)-propyl]-pyridine-2-carboxylic acid]	0.1	–	–	354	–	–
CN(C)CCCc1ccc(OCCCc2ccc(N3CCc4cccc(C(=O)Nc5nc6ccccc6s5)c4C3)nc2C(=O)O)c(F)c1 [Example 100, 6-[8-(Benzothiazol-2-ylcarbamoyl)-3,4-dihydro-1H-isoquinolin-2-yl]-3-{3-[4-(3-dimethylamino-propyl)-2-fluoro-phenoxy]-propyl}-pyridine-2-carboxylic acid]	0.5	219	399	–	–	–
